Assay results: ChEMBL document CHEMBL3272169, “10-Hydroxy-4-methyl-2,3,4,5,6,7-hexahydro-1,6-methano-1H-4-benzazonine derivatives (homobenzomorphans) as analgesics” (J Med Chem, 1976)
Where a name gives a salt, the structure may show the parent alone.

Tests used:
[1] = Acute toxicity in iv dosed albino dd mouse; type: organism-based; settings: in vivo
[2] = system: Mus musculus; assay: Analgesic Activity in sc dosed albino dd mouse by tail pressure stimuli method; type: functional

In the case of `CC(O)C(=O)O.C[C@H]1C2Cc3ccc(O)cc3[C@@H]1CCN(C)C2`, the LD50 [1] is reported as 184 µmol/kg and the ED50 [2] is reported as 9.9 µmol/kg.
`COc1ccc2c3c1O[C@H]1[C@@H](O)C=C[C@H]4[C@@H](C2)N(C)CC[C@@]341` [CODEINE PHOSPHATE] gave an ED50 [2] of 30.7 µmol/kg.
`CC(O)C(=O)O.CN1CCC2CC(Cc3ccccc32)C1` (stereo unspecified) gave an LD50 [1] of 106 µmol/kg and an ED50 [2] of 53.1 µmol/kg.
With `CN1CC[C@]23c4c5ccc(O)c4O[C@H]2[C@@H](O)C=C[C@H]3[C@H]1C5` [MORPHINE HYDROCHLORIDE] the ED50 [2] was 4.4 µmol/kg.
`Br.CN1CC[C@@H]2CC(Cc3ccc(O)cc32)C1` gave an LD50 [1] of 121 µmol/kg and an ED50 [2] of 10.7 µmol/kg.
Work on `CC(O)C(=O)O.C[C@H]1C2Cc3ccc(O)cc3[C@]1(C)CCN(C)C2` yielded an LD50 [1] of 126 µmol/kg and an ED50 [2] of 5.2 µmol/kg.
Work on `CC(O)C(=O)O.CN1CC[C@]2(C)CC(Cc3ccc(O)cc32)C1` yielded an LD50 [1] of 67 µmol/kg and an ED50 [2] of 7 µmol/kg.
In the case of `Br.C[C@@H]1C2Cc3ccc(O)cc3[C@]1(C)CCN(C)C2`, the LD50 [1] is reported as 113 µmol/kg and the ED50 [2] is reported as 4.1 µmol/kg.
Work on `CC(O)C(=O)O.C[C@@H]1C2Cc3ccc(O)cc3[C@@H]1CCN(C)C2` yielded an LD50 [1] of 153 µmol/kg and an ED50 [2] of 8 µmol/kg.
